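The compound was tested at five concentrations on cells cultured in 96-well plates, with a 48-hour exposure period. The concentration for 50% growth inhibition is given as GI50.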 Active and inactive are the calls of the source. Rule as the data show it: active = GI50 up to about 1.1 µM and inactive = higher.
Tests used:
Assay in all cases: DTP human tumour cell line panel, 48 h
OVCAR-5 = system: OVCAR-5
SF-295 = system: SF-295
SNB-75 = system: SNB-75
DU-145 = system: DU-145
NCI-H460 = system: NCI-H460
NCI-H522 = system: NCI-H522
HOP-92 = system: HOP-92
Malme-3M = system: Malme-3M
SK-OV-3 = system: SK-OV-3
SNB-19 = system: SNB-19
U-251 = system: U-251
HCT-15 = system: HCT-15
MCF7 = system: MCF7
MDA-MB-231 = system: MDA-MB-231
SK-MEL-5 = system: SK-MEL-5
OVCAR-4 = system: OVCAR-4
HT-29 = system: HT-29
K562 = system: K562
TK-10 = system: TK-10
UACC-62 = system: UACC-62
SR = system: SR
SK-MEL-2 = system: SK-MEL-2
MOLT-4 = system: MOLT-4
LOX IMVI = system: LOX IMVI
SF-539 = system: SF-539
SF-268 = system: SF-268
KM12 = system: KM12
COLO 205 = system: COLO 205
BT-549 = system: BT-549
M14 = system: M14
NCI/ADR-RES = system: NCI/ADR-RES
MDA-MB-435 = system: MDA-MB-435
ACHN = system: ACHN
OVCAR-3 = system: OVCAR-3
UACC-257 = system: UACC-257
SN12C = system: SN12C
UO-31 = system: UO-31
SK-MEL-28 = system: SK-MEL-28
HOP-62 = system: HOP-62
HCT-116 = system: HCT-116
CAKI-1 = system: CAKI-1
EKVX = system: EKVX
MDA-N = system: MDA-N
A549 = system: A549
PC-3 = system: PC-3
HCC 2998 = system: HCC 2998
Hs-578T = system: Hs-578T
786-0 = system: 786-0
SW-620 = system: SW-620
IGROV-1 = system: IGROV-1
NCI-H23 = system: NCI-H23
CCRF-CEM = system: CCRF-CEM
OVCAR-8 = system: OVCAR-8

SMILES: CN(CCSCCN(C)C(=O)OC(C)(C)C)C(=O)OC(C)(C)C
- GI50 (OVCAR-5): > 100 µM (inactive)
- GI50 (SF-295): > 100 µM (inactive)
- GI50 (SNB-75): 61.5 µM (inactive)
- GI50 (DU-145): > 100 µM (inactive)
- GI50 (NCI-H460): > 100 µM (inactive)
- GI50 (NCI-H522): > 100 µM (inactive)
- GI50 (HOP-92): > 100 µM (inactive)
- GI50 (Malme-3M): > 100 µM (inactive)
- GI50 (SK-OV-3): > 100 µM (inactive)
- GI50 (SNB-19): > 100 µM (inactive)
- GI50 (U-251): > 100 µM (inactive)
- GI50 (HCT-15): > 100 µM
- GI50 (MCF7): > 100 µM (inactive)
- GI50 (MDA-MB-231): > 100 µM (inactive)
- GI50 (SK-MEL-5): > 100 µM (inactive)
- GI50 (OVCAR-4): > 100 µM (inactive)
- GI50 (HT-29): > 100 µM (inactive)
- GI50 (K562): > 100 µM (inactive)
- GI50 (TK-10): > 100 µM (inactive)
- GI50 (UACC-62): > 100 µM (inactive)
- GI50 (SR): > 100 µM (inactive)
- GI50 (SK-MEL-2): > 100 µM (inactive)
- GI50 (MOLT-4): > 100 µM (inactive)
- GI50 (LOX IMVI): > 100 µM (inactive)
- GI50 (SF-539): > 100 µM (inactive)
- GI50 (SF-268): > 100 µM (inactive)
- GI50 (KM12): > 100 µM (inactive)
- GI50 (COLO 205): > 100 µM (inactive)
- GI50 (BT-549): > 100 µM (inactive)
- GI50 (M14): > 100 µM (inactive)
- GI50 (NCI/ADR-RES): > 100 µM (inactive)
- GI50 (MDA-MB-435): > 100 µM (inactive)
- GI50 (ACHN): > 100 µM (inactive)
- GI50 (OVCAR-3): > 100 µM (inactive)
- GI50 (UACC-257): > 100 µM (inactive)
- GI50 (SN12C): > 100 µM (inactive)
- GI50 (UO-31): > 100 µM (inactive)
- GI50 (SK-MEL-28): > 100 µM (inactive)
- GI50 (HOP-62): > 100 µM (inactive)
- GI50 (HCT-116): > 100 µM (inactive)
- GI50 (CAKI-1): > 100 µM (inactive)
- GI50 (EKVX): > 100 µM (inactive)
- GI50 (MDA-N): > 100 µM (inactive)
- GI50 (A549): > 100 µM (inactive)
- GI50 (PC-3): > 100 µM (inactive)
- GI50 (HCC 2998): > 100 µM (inactive)
- GI50 (Hs-578T): > 100 µM (inactive)
- GI50 (786-0): > 100 µM (inactive)
- GI50 (SW-620): > 100 µM (inactive)
- GI50 (IGROV-1): > 100 µM (inactive)
- GI50 (NCI-H23): > 100 µM (inactive)
- GI50 (CCRF-CEM): > 100 µM (inactive)
- GI50 (OVCAR-8): > 100 µM (inactive)

From ChEMBL document CHEMBL1201862, “PubChem BioAssay data set” (2004)
